The values below come from patent publication US7341715B2, “Method and agents on the basis of 2-mercaptopropionic acid amides for durable hair forming and a method for producing same” (Wella AG, priority 2000, dated 2008).

Data set [1] in a line: Comparison of the stabilities of the waves: wave stability (WSN). Conditions: waving solution 87 mmoles/100 g reducing agent, standardized to glycerin monothioglycolate solution pH 9 = 100%; for WSN pH = 7: pH 7, 20 minutes at 50° C.; for WSN pH = 8: pH 8, 20 minutes at 50° C.; for WSN pH = 9: pH 9, 20 minutes at 50° C. The procedure:
The waving effectiveness of the 1-mercaptopropionamides was determined using glycerin monothioglycolate as comparison substance with the help of waving solutions at a pH of 7, 8 and 9. For this purpose, pre-bleached and therefore damaged counting hair strands (consisting of about 100 hairs) from Middle European hair was wound wet onto standardized spiral curlers (internal diameter of 3 millimeters) and, after being conditioned in an air-conditioned room (temperature: 20° C., relative humidity: 65%), treated with a solution of the reducing agent, containing 87 mmoles/100 g and adjusted to the respective pH. The amount of waving liquid applied was calculated from the ratio of 1:1.2 (1 g of hair: 1.2 mL of waving liquid). A period of action of 20 minutes at a temperature of 50° C. was selected. Subsequently, the hair was fixed with a peroxide-containing material, removed from the curlers and hung up for 4 hours in water (waterbath temperature: 40° C.).
The wave stability (WSN) is calculated from the following formula:
[formula] • 1o=total length of the not shaped, stretched strands (16.5 cm) • 1t=length of the strands, removed from the curlers and suspended, after 240 minutes • 1l=length of the shaped strands on curlers (for curlers with an internal diameter of 3 mm, 1l=35 mm)
As a standard, strands were treated with a glycerin monothioglycolate solution, the pH of which had been adjusted to a value of 9. The standardized wave stabilities, given below in Table 1, relate to this standard solution (pH=9), the wave stability (WSN) of which has been set at 100%.

A further data set can be described thus: pKa value. It counts as physicochemical.

Consider `CC(S)C(=O)NCCN` (stereo not shown) [N-(2-Aminoethyl)-2-mercaptopropionamide], for which, in data set [1], the “WSN pH = 7” value was 61%, the “WSN pH = 8” value came out at 81% and the “WSN pH = 9” value is given as 87%.

Take `CC(S)C(=O)NCCCN(C)C` (stereo not shown) [N-(3-Dimethylaminopropyl)-2-mercaptopropionamide]: the melting point (as a rule, the temperature, or range, at which the solid turns liquid) worked out at 84 °C. For the same molecule, in data set [1], the “WSN pH = 7” value is reported as 72%, the “WSN pH = 8” value amounted to 83% and the “WSN pH = 9” value is on record as 95%.

Take `CCC(CO)NC(=O)C(C)S` (stereo not shown) [N-(1-Hydroxymethylpropyl)-2-mercaptopropionamide]: in data set [1], the “WSN pH = 7” value was 73%, the “WSN pH = 8” value was 88% and the “WSN pH = 9” value was determined as 85%.

As for `COCC(C)NC(=O)C(C)S` (stereo not shown) [N-(1-Methoxy-2-propyl)-2-mercaptopropionamide], the melting point came to 60 °C. Besides, in data set [1], the “WSN pH = 7” value was determined as 91%, the “WSN pH = 8” value is given as 95% and the “WSN pH = 9” value was 99%.

Turning to `CCCN(CCO)C(=O)C(C)S` (stereo not shown) [N-Propyl,N-(2-hydroxyethyl)-2-mercaptopropionamide], the melting point stood at 80 °C. Besides, in data set [1], the “WSN pH = 7” value turned out to be 77%, the “WSN pH = 8” value is given as 89% and the “WSN pH = 9” value is 99%.

Regarding `COCCN(CCOC)C(=O)C(C)S` (stereo not shown) [N,N-Bis-(2-methoxyethyl)-2-mercaptopropionamide], the melting point was 85 °C. In data set [1], the “WSN pH = 7” value is reported as 78%, the “WSN pH = 8” value worked out at 93% and the “WSN pH = 9” value was 91%.

As for `CC(S)C(=O)NCCO` (stereo not shown) [N-(2-Hydroxyethyl)-2-mercaptopropionamide], in data set [1], the “WSN pH = 7” value turned out to be 84%, the “WSN pH = 8” value was determined as 106% and the “WSN pH = 9” value was determined as 103%.

For Thiolactic acid [reference compound], in data set [1], the “WSN pH = 7” value amounted to 57%, the “WSN pH = 8” value was 50% and the “WSN pH = 9” value amounted to 70%.

As to `CC(S)C(=O)N(CCO)C(C)C` (stereo not shown) [N-Isopropyl,N-(2-hydroxyethyl)-2-mercaptopropionamide], the melting point came out at 100 °C. Moreover, in data set [1], the “WSN pH = 7” value is recorded as 65%, the “WSN pH = 8” value is listed as 88% and the “WSN pH = 9” value came out at 109%.

`CC(S)C(=O)NCC1CCCO1` (stereo not shown) [N-Tetrahydrofurfuryl-2-mercaptopropionamide]: the melting point was 82 °C. In addition, in data set [1], the “WSN pH = 7” value is given as 85%, the “WSN pH = 8” value is given as 88% and the “WSN pH = 9” value was 94%.

As to `CCN(CCO)C(=O)C(C)S` (stereo not shown) [N-Ethyl,N-(2-hydroxyethyl)-2-mercaptopropionamide], the melting point was determined as 95 °C. For the same molecule, in data set [1], the “WSN pH = 7” value worked out at 94%, the “WSN pH = 8” value came out at 83% and the “WSN pH = 9” value stood at 114%.

Molecule `CCN(CC)CCNC(=O)C(C)S` (stereo not shown) [N-(2-Diethylaminoethyl)-2-mercaptopropionamide] displayed a melting point of 74 °C. Also, in data set [1], the “WSN pH = 7” value is on record as 71%, the “WSN pH = 8” value was found to be 80% and the “WSN pH = 9” value is given as 77%.

Molecule `CCN(CC)CCCNC(=O)C(C)S` (stereo not shown) [N-(3-Diethylaminopropyl)-2-mercaptopropionamide] returned a melting point of 65 °C. Moreover, in data set [1], the “WSN pH = 7” value came out at 77%, the “WSN pH = 8” value is reported as 73% and the “WSN pH = 9” value is given as 81%.

As to `CC(O)CNC(=O)C(C)S` (stereo not shown) [N-(2-Hydroxypropyl)-2-mercaptopropionamide], in the data set “pKa value”, the pKa (usually the negative logarithm of the acid dissociation constant) is 8.37. Moreover, in data set [1], the “WSN pH = 7” value was determined as 78%, the “WSN pH = 8” value came to 94% and the “WSN pH = 9” value turned out to be 94%.

On to `COCCNC(=O)C(C)S` (stereo not shown) [N-(2-Methoxyethy)-2-mercaptopropionamide], for which, in data set [1], the “WSN pH = 7” value stood at 87%, the “WSN pH = 8” value was 99% and the “WSN pH = 9” value stood at 106%.

`CC(S)C(=O)N1CCN(C)CC1` (stereo not shown) [N,N-(4-Methylaza-pentamethylene)-2-mercaptopropionamide]: in data set [1], the “WSN pH = 7” value was found to be 78%, the “WSN pH = 8” value is 86% and the “WSN pH = 9” value stood at 78%.

Take `CNCCCNC(=O)C(C)S` (stereo not shown) [N-(3-Methylaminopropyl)-2-mercaptopropionamide]: in data set [1], the “WSN pH = 7” value stood at 55%, the “WSN pH = 8” value was 73% and the “WSN pH = 9” value is on record as 78%.

On to `COCCCNC(=O)C(C)S` (stereo not shown) [N-(3-Methoxypropyl)-2-mercaptopropionamide], for which the melting point was determined as 97 °C. Besides, in data set [1], the “WSN pH = 7” value is reported as 79%, the “WSN pH = 8” value was 92% and the “WSN pH = 9” value was 91%.

Take `CCC(O)CNC(=O)C(C)S` (stereo not shown) [N-(2-Hydroxy-1-butyl)-2-mercaptopropionamide]: in data set [1], the “WSN pH = 7” value was found to be 79%, the “WSN pH = 8” value is reported as 91% and the “WSN pH = 9” value came to 94%.

In the case of `CC(S)C(=O)N(C)CCO` (stereo not shown) [N-Methyl,N-(2-hydroxyethyl)-2-mercaptopropionamide], the melting point was found to be 95 °C. For the same molecule, in data set [1], the “WSN pH = 7” value was found to be 72%, the “WSN pH = 8” value was 91% and the “WSN pH = 9” value is 91%.

Turning to `CC(S)C(=O)NCCCN` (stereo not shown) [N-(3-Aminopropyl)-2-mercaptopropionamide], in data set [1], the “WSN pH = 7” value was found to be 67%, the “WSN pH = 8” value is on record as 82% and the “WSN pH = 9” value is 88%.

As to `CC(S)C(=O)N1CCCC(O)C1` (stereo not shown), in data set [1], the “WSN pH = 7” value turned out to be 79%, the “WSN pH = 8” value is 94% and the “WSN pH = 9” value was 89%.

In the case of `CC(S)C(=O)NCCN1CCOCC1` (stereo not shown) [N-(2-Morpholinoethyl)-2-mercaptopropionamide], in data set [1], the “WSN pH = 7” value was determined as 85%, the “WSN pH = 8” value turned out to be 93% and the “WSN pH = 9” value was 92%.

As to `CC(S)C(=O)NCCN(C)C` (stereo not shown) [N-(2-Dimethylaminoethyl)-2-mercaptopropionamide], the melting point turned out to be 83 °C. In addition, in data set [1], the “WSN pH = 7” value was found to be 81%, the “WSN pH = 8” value turned out to be 87% and the “WSN pH = 9” value stood at 83%.

Consider `CCNCCNC(=O)C(C)S` (stereo not shown) [N-(2-Ethylaminoethyl)-2-mercaptopropionamide], for which, in data set [1], the “WSN pH = 7” value is given as 57%, the “WSN pH = 8” value stood at 82% and the “WSN pH = 9” value amounted to 60%.
